Assay results from ChEMBL document CHEMBL1201862, “PubChem BioAssay data set” (2004).
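Compound exposure: 48 hours, 5 concentrations, 96-well plates. GI50 = concentration required for 50% inhibition of growth.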 Active and inactive are the calls of the source. Rule as the data show it: active = GI50 up to about 1.1 µM and inactive = higher.

What was measured:
Test in all cases: inhibition of tumour cell growth, NCI panel, 48 h
HOP-92 = test system: HOP-92
CCRF-CEM = test system: CCRF-CEM
HOP-62 = test system: HOP-62
CAKI-1 = test system: CAKI-1
DU-145 = test system: DU-145
SN12C = test system: SN12C
COLO 205 = test system: COLO 205
Malme-3M = test system: Malme-3M
KM12 = test system: KM12
MDA-MB-435 = test system: MDA-MB-435
RXF 393 = test system: RXF 393
T47D = test system: T47D
MDA-MB-231 = test system: MDA-MB-231
RPMI-8226 = test system: RPMI-8226
MDA-N = test system: MDA-N
HCT-116 = test system: HCT-116
SF-295 = test system: SF-295
SK-MEL-2 = test system: SK-MEL-2
NCI-H226 = test system: NCI-H226
HT-29 = test system: HT-29

Row | SMILES | GI50 (HOP-92) | GI50 (CCRF-CEM) | GI50 (HOP-62) | GI50 (CAKI-1) | GI50 (DU-145) | GI50 (SN12C) | GI50 (COLO 205) | GI50 (Malme-3M) | GI50 (KM12) | GI50 (MDA-MB-435) | GI50 (RXF 393) | GI50 (T47D) | GI50 (MDA-MB-231) | GI50 (RPMI-8226) | GI50 (MDA-N) | GI50 (HCT-116) | GI50 (SF-295) | GI50 (SK-MEL-2) | GI50 (NCI-H226) | GI50 (HT-29)
1 | COc1cc(S(=O)(=O)Nc2ccc(-c3csc(/N=C\c4ccccc4O)n3)cc2)ccc1Cl | > 100 µM (inactive) | 22.3 µM (inactive) | 65.3 µM (inactive) | > 100 µM (inactive) | 45.9 µM (inactive) | 65.2 µM (inactive) | 41.2 µM (inactive) | 39.3 µM (inactive) | 38.1 µM (inactive) | 36.1 µM (inactive) | 35.6 µM (inactive) | 16.9 µM (inactive) | 53.6 µM (inactive) | 29.6 µM (inactive) | 33.9 µM (inactive) | 43.1 µM (inactive) | 31.5 µM (inactive) | 29.2 µM (inactive) | > 100 µM (inactive) | > 100 µM (inactive)
2 | COc1cc2oc(=O)ccc2cc1CC=C(C)C [SUBEROSIN] | 18 µM (inactive) | 44 µM (inactive) | > 100 µM (inactive) | 40.6 µM (inactive) | 36.8 µM (inactive) | 47.6 µM (inactive) | 43.4 µM (inactive) | 37.4 µM (inactive) | 36.9 µM (inactive) | 43.3 µM (inactive) | 16.9 µM (inactive) | 15.8 µM (inactive) | 50.2 µM (inactive) | 19.5 µM (inactive) | 52.5 µM (inactive) | 38.6 µM (inactive) | 41.1 µM (inactive) | 45.3 µM (inactive) | 29.6 µM (inactive) | 22.6 µM (inactive)
3 | COC(=O)[C@]12CSC[C@H]1C[C@H](c1ccc(N(C)C)cc1)N2 | > 100 µM (inactive) |  | > 100 µM (inactive) | > 100 µM (inactive) | > 100 µM (inactive) | > 100 µM (inactive) | > 100 µM (inactive) | > 100 µM (inactive) | > 100 µM (inactive) | > 100 µM (inactive) | > 100 µM (inactive) | > 100 µM (inactive) | > 100 µM (inactive) | > 31.6 µM (inactive) | > 62.2 µM (inactive) | > 100 µM (inactive) | > 100 µM (inactive) | > 100 µM (inactive) | > 100 µM (inactive) | 
4 | O=[N+]([O-])/C=C/c1cccc(F)c1 | 11.6 µM (inactive) | 2.22 µM (inactive) | 10.3 µM (inactive) | 12.9 µM (inactive) | 4.47 µM (inactive) | 17 µM (inactive) | 2.74 µM (inactive) | 15.8 µM (inactive) | 2.95 µM (inactive) | 3.24 µM (inactive) | 2.02 µM (inactive) | 4.88 µM (inactive) | 16.4 µM (inactive) | 1.48 µM (inactive) | 2.64 µM (inactive) | 0.603 µM (active) | 11.4 µM (inactive) | 12.4 µM (inactive) | 2.25 µM (inactive) | 3.18 µM (inactive)
5 | c1ccc(-c2cc(-c3cc(-c4ccccc4)no3)on2)cc1 | 24.5 µM (inactive) | 27.4 µM (inactive) | 72.1 µM (inactive) | > 100 µM (inactive) | > 100 µM (inactive) | 42.5 µM (inactive) | 45.6 µM (inactive) | > 100 µM (inactive) | > 100 µM (inactive) | > 100 µM (inactive) | 67.1 µM (inactive) | 81.3 µM (inactive) | 24.1 µM (inactive) | > 100 µM (inactive) | > 100 µM (inactive) | 55.8 µM (inactive) | 53.8 µM (inactive) | > 100 µM (inactive) | 71 µM (inactive) | > 100 µM (inactive)
6 | CCOC(=O)C(CC(C)C)NC(=O)C(N)Cc1ccc(N(CCCl)CCCl)cc1 (stereo not drawn) | 3.18 µM (inactive) | 0.104 µM (active) | 4.86 µM (inactive) | 3.11 µM (inactive) | 4.9 µM (inactive) | 5.6 µM (inactive) | 4.22 µM (inactive) | 1.75 µM (inactive) | 12.9 µM (inactive) | 16.9 µM (inactive) | 2.01 µM (inactive) | 2.35 µM (inactive) | 15.7 µM (inactive) | 5.61 µM (inactive) | 12.6 µM (inactive) | 3.12 µM (inactive) | 4.39 µM (inactive) | 4.83 µM (inactive) | 9.71 µM (inactive) | 2.13 µM (inactive)
7 | CC(=O)N(C(=O)CC(=O)N1N=C(c2ccccc2)C(/N=N/c2ccccc2[N+](=O)[O-])C1=O)c1ccc(Cl)cc1 (stereo not drawn) | > 10 µM (inactive) | > 10 µM (inactive) | > 10 µM (inactive) | > 10 µM (inactive) | > 10 µM (inactive) | > 10 µM (inactive) | > 10 µM (inactive) | > 10 µM (inactive) | > 10 µM (inactive) | > 10 µM (inactive) | > 10 µM (inactive) | > 10 µM (inactive) | > 10 µM (inactive) | > 10 µM (inactive) | > 10 µM (inactive) | > 10 µM (inactive) | > 10 µM (inactive) | > 10 µM (inactive) | > 10 µM (inactive) | > 10 µM (inactive)
8 | O=C(O)C(Cc1c[nH]c2ccccc12)N1C(=O)c2ccccc2C1=O (stereo not drawn) | 0.785 µM (active) |  | > 100 µM (inactive) | > 100 µM (inactive) | > 100 µM (inactive) | > 100 µM (inactive) | > 100 µM (inactive) | > 100 µM (inactive) | > 100 µM (inactive) | > 100 µM (inactive) | > 100 µM (inactive) | > 100 µM (inactive) | > 100 µM (inactive) | > 100 µM (inactive) | > 100 µM (inactive) | > 100 µM (inactive) | > 100 µM (inactive) | > 100 µM (inactive) | > 100 µM (inactive) | > 100 µM (inactive)
9 | O=c1[nH]c2cccc([N+](=O)[O-])c2c(=O)n1-c1ccc(Cl)cc1 | 18.5 µM (inactive) | 17.4 µM (inactive) | 18.6 µM (inactive) | 2.64 µM (inactive) | 15.1 µM (inactive) | 14 µM (inactive) | 4.24 µM (inactive) | 12.8 µM (inactive) | 15.2 µM (inactive) | 6.64 µM (inactive) | 17.1 µM (inactive) | 11 µM (inactive) | 15.8 µM (inactive) | 13.6 µM (inactive) | 11.3 µM (inactive) | 17.9 µM (inactive) | 1.89 µM (inactive) | 9.86 µM (inactive) | 13.6 µM (inactive) | 7.03 µM (inactive)
10 | O=P1(C(O)/C=C/c2ccccc2)N(Cc2ccccc2)[C@H](c2ccccc2)[C@@H](c2ccccc2)N1Cc1ccccc1 (stereo partly drawn) | 11 µM (inactive) | 10.5 µM (inactive) | 29.8 µM (inactive) | 17.1 µM (inactive) | 38.5 µM (inactive) | 13.6 µM (inactive) | 11.9 µM (inactive) | 27.8 µM (inactive) | 17 µM (inactive) | 19.3 µM (inactive) | 21.3 µM (inactive) | 7.13 µM (inactive) | 17.3 µM (inactive) | 3.63 µM (inactive) | 16.5 µM (inactive) | 8.15 µM (inactive) | 14 µM (inactive) | 14.1 µM (inactive) | 36.6 µM (inactive) | 14.2 µM (inactive)
11 | CCOC(=O)C1(C(=O)OCC)C[C@H]2CON=C2[C@@H]1c1ccc(C(F)(F)F)cc1 | 50.4 µM (inactive) | 7.96 µM (inactive) | 21.9 µM (inactive) | 30.9 µM (inactive) | > 100 µM (inactive) | 94.8 µM (inactive) | 26.2 µM (inactive) | > 100 µM (inactive) | 82.6 µM (inactive) | 38.6 µM (inactive) | 43.6 µM (inactive) | 16.7 µM (inactive) | > 100 µM (inactive) | 26.5 µM (inactive) | 45.7 µM (inactive) | 29.6 µM (inactive) | 41.5 µM (inactive) | 62.2 µM (inactive) | 34.9 µM (inactive) | 32 µM (inactive)
12 | COC(=O)C1=C(OC(=O)/C(=C/c2ccccc2)c2ccc([N+](=O)[O-])cc2)C(C(=O)OC)[C@@]2(O)[C@@H](C(=O)OC)[C@H](C)C[C@@H]1[C@@H]2C(=O)OC (stereo partly drawn) | > 100 µM (inactive) | 12.9 µM (inactive) | > 100 µM (inactive) | > 100 µM (inactive) | > 100 µM (inactive) | > 100 µM (inactive) | > 100 µM (inactive) | > 100 µM (inactive) | > 100 µM (inactive) | > 100 µM (inactive) | 53 µM (inactive) | > 100 µM (inactive) | > 100 µM (inactive) | 3.71 µM (inactive) | > 100 µM (inactive) | > 100 µM (inactive) | > 100 µM (inactive) | > 100 µM (inactive) | > 100 µM (inactive) | > 100 µM (inactive)
13 | O=C(c1ccccc1)N1C(=S)N(c2ccc([N+](=O)[O-])cc2)C(=N/c2ccccc2)/C1=N\c1ccccc1 | > 100 µM (inactive) |  | > 100 µM (inactive) | > 100 µM (inactive) | > 100 µM (inactive) | > 100 µM (inactive) | > 100 µM (inactive) | > 100 µM (inactive) | > 100 µM (inactive) | > 100 µM (inactive) | > 100 µM (inactive) | > 100 µM (inactive) | 39.8 µM (inactive) | > 100 µM (inactive) | 52.7 µM (inactive) |  | > 100 µM (inactive) | > 100 µM (inactive) | > 100 µM (inactive) | > 100 µM (inactive)
14 | O=C1Nc2ccccc2NC1C1OC(c2ccccc2)=CC1=O (stereo not drawn) | > 100 µM (inactive) | > 100 µM (inactive) |  | > 100 µM (inactive) | > 100 µM (inactive) |  | > 100 µM (inactive) | > 100 µM (inactive) | > 100 µM (inactive) | > 100 µM (inactive) | > 100 µM (inactive) | > 100 µM (inactive) | > 100 µM (inactive) | > 100 µM (inactive) | > 100 µM (inactive) | > 100 µM (inactive) | > 100 µM (inactive) | > 100 µM (inactive) | > 100 µM (inactive) | > 100 µM (inactive)
